How the values were obtained:
[1] = parameters: method as in printed; conditions: mice; ref not given; cited from earlier work
mdx mouse model = system: mdx mouse model; parameters: method as in PMID 21137017; conditions: i.p.; cited from earlier work
[2] = parameters: method as in PMID 15269190; conditions: mice, i.p. dosing; cited from earlier work
D2.B10 mice [3] = test: Muscle fibrosis by Sirius Red staining in D2.B10 mice; assay type: in vivo, mouse (D2.B10-Dmd^mdx/J)
Excerpt: (§1) Tibialis anterior (TA), gastrocnemius (GAS), DIA, and heart were collected from mice maintained under isoflurane anesthesia and sacrificed by cervical dislocation. These muscles were collected from C57BL/10J wt and mdx (5 mice/group) at the end of treatments and from DBA/2J wt and D2.B10 mice (5 mice/group) at two different time points to be examined by a pathologist (for more details see Additional Table 1). Due to the results obtained by the functional tests, muscles from only some treatment groups were analyzed in both DMD models (see Additional Table 1). All the collected muscles were fixed in 10% buffered formalin solution (Bio-optica, Milan, Italy) at + 4 °C for at least 48 h. After fixation, muscular samples were transversely trimmed, caged, and paraffin embedded overnight with an Automated Vacuum Tissue Processor Floor (ETP, Histo-Line Laboratories) and included in paraffin blocks. Serial transverse cross-sections (4 μm thick) were cut with a microtome (Leica RM 2255), collected onto uncoated glass slides, and stained using a standard protocol for hematoxylin and eosin (Mayer hematoxylin & Aqueous G Eosin 1%, Bio-Optica) and Sirius Red staining (Direct Red 80, Sigma-Aldrich). For the image analysis and quantitation, hematoxylin and eosin- and Sirius Red-stained slides were examined with an Olympus BX51 light microscope. From each sample, 1 to 3 random microphotographs at the magnification of × 4 and × 10 (TA, GAS and heart) or × 20 (DIA) were collected using Image-Pro Plus system. The digital images were processed by a pathologist using ImageJ software (U.S. National Institutes of Health, Bethesda, MD, USA). To quantify CSA and centralized nuclei (%) on hematoxylin and eosin-stained sections, one hundred myofibers were manually measured for each muscle/mouse using a tablet pen (Wacom Intruos) and analyzed by the ImageJ software after a linear calibration of 150 μm. The fibrotic area, corresponding to the area stained in red, was compared to the total area of the tissue section, and the results were expressed as percentage fibrosis. The % of fibrosis of muscles in the different treatment groups was expressed by averaging the three values obtained from each muscle.

[4] = Body weight of D2.B10 mice; assay type: in vivo, mouse (D2.B10-Dmd^mdx/J); conditions: mouse, in vivo
Method: In the efficacy studies, Givinostat powder (ITF2357) was suspended in 0.5% methylcellulose (Sigma-Aldrich) and administered p.o. (by gavage) at the doses of 0.1, 0.3, 1, 5, 10, 25, and 37.5 mg/kg qdx5x15weeks (administration volume per mouse: 10 mL/kg) in mdx mice (see Additional Figure 1A). Vehicle-treated mdx mice received 0.5% methylcellulose suspension. Givinostat suspension was stored at + 4 °C, and it was freshly prepared every 7 days. Probably due to the impairment of their tongue and masticatory muscles, the oral gavage procedure turned out to be difficult to perform, and chronic treatment of D2.B10 mice by this route was considered to bear a high risk of damaging the esophagus. For this reason, Givinostat was administered in the drinking water. Givinostat was dissolved in filtered tap water and was administered in drinking water (throughout 24 h) for 105 days at the dose of 1, 5, 10, and 37.5 mg/kg/day, according to a daily estimate of water consumption of 4 ml/mouse/day. Water consumption was weekly monitored throughout the entire duration of the study weighing the bottle of each cage (maximum 4 mice per cage). Prednisone and Deflazacort powder (Sigma-Aldrich) was dissolved in 2% DMSO (Sigma-Aldrich) and diluted in sterile saline on injection days. Both drugs were administered weekly (for 15 weeks) by i.p. injection at the dose of 1 mg/kg in a volume of 10 mL/kg. […] All mice were monitored daily and tolerability was evaluated on the basis of BW and clinical signs.
In both efficacy studies, the effectiveness of treatments was evaluated every week by measuring the forelimb strength by a grip strength meter (Ugo Basile SRL, Italy). BW of mdx (see Additional Figure 2) and D2.B10 mice (see Additional Figure 3) was also measured in order to normalize the absolute grip strength of each mouse with respect to its BW. […] The highest recorded value of maximal normalized strength (FNmax) obtained for each mouse at all the time points (from T0 to T15) was used for further analysis.

D2.B10 mice [5] = test: Myofiber cross-sectional area (CSA) in D2.B10 mice; assay type: in vivo, mouse (D2.B10-Dmd^mdx/J); conditions: D2.B10 muscles, 1 mg/kg i.p. weekly
Excerpt: as §1
The deciles of the CSA of the animals treated with Givinostat at the different doses were plotted against the corresponding deciles of the vehicle-treated mice and a linear regression analysis was performed on natural [CSAtreated = b CSAcontrol + a] and log_transformed data [log(CSAtreated) = log(a) + b log(CSAcontrol)]. […] In case of untransformed data, this means that the effect of Givinostat treatment is additive and any decile of the CSAtreatment distribution may be derived from the control data summing up a constant quantity (S) to each fiber AREA of the control group (CSAtreated = CSAcontrol + S). In case of log_transformed data, the effect of Givinostat has to be considered as a multiplicative factor on any generic fiber of the muscle under evaluation, whose size, after the treatment, results K times larger in comparison to the control group value (CSAtreated […] = K × CSAcontrol, with K = 10^a). The S or K parameter values were then determined through an iterative estimation procedure, based on sum of squares (SSQ) minimization, directly comparing the CSA distribution observed in treated animals with that obtained summing up the S value or multiplying by K the CSA values of the control group.

D2.B10 mice [6] = test: Treadmill run to exhaustion test in D2.B10 mice; assay type: in vivo, mouse (D2.B10-Dmd^mdx/J); conditions: Deflazacort, prednisone 1 mg/kg, lower doses of Givinostat
Excerpt: (§2) For the efficacy studies, C57BL/10 J (Stock No: 000665) wild type (wt) and C57BL/10ScSn-Dmd^mdx/J (Stock No: 001801) 7–8-week-old male mice, DBA/2J wt (Stock No: 000671), and D2.B10-Dmd^mdx/J (Stock No: 013141) 6–7-week-old male mice were purchased from The Jackson Laboratories (Bar Harbor, Maine, USA). After 5 days of acclimatization in the animal facility, mice were randomized into different treatment groups based on their BW. C57BL/10J wt mice were assigned to the naive wt group (healthy mice that received no treatment, but were subjected to functional tests), whereas mdx mice were assigned to the following groups (9 mice/group; 4–5 mice/cage): naive mdx (mice that received no treatment, but were subjected to functional tests), vehicle (0.5% methylcellulose, p.o.), and Givinostat (0.1, 0.3, 1, 5, 10, 25, and 37.5 mg/kg, p.o.). DBA/2J mice were assigned to the naive wt group (healthy mice that received no treatment, but were subjected to functional tests), whereas D2.B10 mice were assigned to the following groups (12–13 mice/group; 4–5 mice/gage): vehicle (filtered tap water, p.o.), Givinostat (1, 5, 10, and 37.5 mg/kg, p.o.), prednisone 1 mg/kg, and Deflazacort 1 mg/kg (i.p.).
(§3) In the efficacy studies, Givinostat powder (ITF2357) was suspended in 0.5% methylcellulose (Sigma-Aldrich) and administered p.o. (by gavage) at the doses of 0.1, 0.3, 1, 5, 10, 25, and 37.5 mg/kg qdx5x15weeks (administration volume per mouse: 10 mL/kg) in mdx mice (see Additional Figure 1A). Vehicle-treated mdx mice received 0.5% methylcellulose suspension. Givinostat suspension was stored at + 4 °C, and it was freshly prepared every 7 days. Probably due to the impairment of their tongue and masticatory muscles, the oral gavage procedure turned out to be difficult to perform, and chronic treatment of D2.B10 mice by this route was considered to bear a high risk of damaging the esophagus. For this reason, Givinostat was administered in the drinking water. Givinostat was dissolved in filtered tap water and was administered in drinking water (throughout 24 h) for 105 days at the dose of 1, 5, 10, and 37.5 mg/kg/day, according to a daily estimate of water consumption of 4 ml/mouse/day. Water consumption was weekly monitored throughout the entire duration of the study weighing the bottle of each cage (maximum 4 mice per cage). Prednisone and Deflazacort powder (Sigma-Aldrich) was dissolved in 2% DMSO (Sigma-Aldrich) and diluted in sterile saline on injection days. Both drugs were administered weekly (for 15 weeks) by i.p. injection at the dose of 1 mg/kg in a volume of 10 mL/kg. Givinostat and steroid treatments started on days 7 and 9 of the experimental plan, respectively (see Additional Figure 1B). All mice were monitored daily and tolerability was evaluated on the basis of BW and clinical signs.
Run to exhaustion performance of mdx and D2.B10 mice was evaluated every 14 or 21 days, respectively, using a treadmill apparatus (Ugo Basile SRL, Italy). The exhaustion protocol consisted in an initially horizontal running at 5 m/min for 5 min after which the speed was increased 1 m/min every minute until exhaustion (the procedure was compliant with the standard operating procedures of TREAT–NMD Neuromuscular Network). […]
After taking baseline readings for behavioral assays (FNmax and distance run by the animals), mice were re-randomized based on these two parameters, also considering the previous randomization performed on their BW. […]

D2.B10 mice [7] = test: Grip strength test (FNmax) in D2.B10 mice; assay type: in vivo, mouse (D2.B10-Dmd^mdx/J)
Excerpt: as §2, §3
In both efficacy studies, the effectiveness of treatments was evaluated every week by measuring the forelimb strength by a grip strength meter (Ugo Basile SRL, Italy). BW of mdx (see Additional Figure 2) and D2.B10 mice (see Additional Figure 3) was also measured in order to normalize the absolute grip strength of each mouse with respect to its BW. The protocol provides 5 measurements for each mouse (the procedure was compliant with the standard operating procedures of TREAT–NMD Neuromuscular Network). The highest recorded value of maximal normalized strength (FNmax) obtained for each mouse at all the time points (from T0 to T15) was used for further analysis.
After taking baseline readings for behavioral assays (FNmax and distance run by the animals), mice were re-randomized based on these two parameters, also considering the previous randomization performed on their BW.
The grip strength and run to exhaustion tests were performed during the light-cycle phase, in the early hours of the morning (8:00–11:30 am). […]

O=C(CCCCCCC(=O)Nc1ccccc1)NO [Vorinostat]
Oral bioavailability [1]: very poor oral bioavailability
Dose of peak functional and histologic effects (bell-shaped dose-response curve) (mdx mouse model): 1.2 mg/kg

CC(/C=C/C(=O)NO)=C\[C@@H](C)C(=O)c1ccc(N(C)C)cc1 [TSA, trichostatin A]
Half-life [2]: 6.3 min
Peak plasma concentrations [2]: micromolar

CC(=O)OCC(=O)[C@@]12N=C(C)O[C@@H]1C[C@H]1[C@@H]3CCC4=CC(=O)C=C[C@]4(C)[C@H]3[C@@H](O)C[C@@]12C [Deflazacort]
Effect of steroid on fibrosis, summary (D2.B10 mice [3]; 1 mg/kg i.p. weekly): effective only in TA
Reduction of fibrosis in DIA (D2.B10 mice [3]; T8): no significant effect
Reduction of fibrosis in TA (D2.B10 mice [3]; T8, Givinostat 37.5 mg/kg, steroids 1 mg/kg, vs vehicle): about 22%
Effect on fibrosis in GAS (D2.B10 mice [3]; T16): No significant effect
Body weight vs vehicle-treated mice [4]: no significant differences
Effect of steroid on cross-sectional area and centralized nuclei (D2.B10 mice [5]): unable to affect cross-sectional area or the number of centralized nuclei
Effect on distance run, significance (D2.B10 mice [6]): not statistically significant
Effect of steroid on FNmax in comparison (D2.B10 mice [7]; 1 mg/kg i.p. weekly, all the treatment period): lower and not significantly different from prednisone
Time interval of significant FNmax improvement (D2.B10 mice [7]; Deflazacort 1 mg/kg i.p. weekly, Givinostat 1 mg/kg): from day 28 to day 90

— publication PMC8296708, “The pan HDAC inhibitor Givinostat improves muscle function and histological parameters in two Duchenne muscular dystrophy murine models expressing different haplotypes of the LTBP4 gene” (Skeletal Muscle, 2021)
